System: platelet aggregation
Test: In vitro anti-platelet test: inhibition of arachidonic acid-induced platelet aggregation in platelet-rich plasma (Born's turbidimetric method)
Format: cell-based, male Japanese white rabbits
Conditions: Oryctolagus cuniculus, 5 min, rabbit PRP, 37° C., read-out: Percentage inhibition of platelet aggregation; for inhibition at 50 µg/mL: 50 μg/ml; for inhibition at 100 µg/mL: 100 μg/ml; for inhibition at 10 µg/mL: 10 μg/ml; for inhibition at 25 µg/mL: 25 μg/ml
Experimental: The anti-platelet aggregating activity of the compounds of the present invention was determined by Born's turbidimetric method (G.V.R. Born, Nature, No. 4832, Jun. 9, 1962, 927-929) using an aggregometer (NKK Hema Tracer 1, PAT-4M, NKK Inc. Japan).
PRP was prepared from male Japanese white rabbits weighing 2.3-4.1 kg. Blood was drawn into syringes containing 3.8% sodium citrate (1/10 volume) and centrifuged at 1000 r.p.m. for 10 min. at room temperature. Platelet poor plasma (PPP) was obtained from the supernatant fraction of the residual blood by centrifugation at 3000 r.p.m. for 10 min. The aggregation (%) was calculated against the turbidity of PPP, which was designated as 100%. 1.2. In vitro anti-platelet test
A 200 μl volume of PRP was placed in the cuvette of the aggregometer and incubated at 37° C. To the cuvette was added 25 μl of 10% methanol solution in physiological saline as a solvent or 25 μl of test drug solution dissolved in the solvent in a predetermined concentration (μg/ml) indicated in Table 2, which was stirred and incubated. 5 min. after, platelet aggregation was induced by the addition of 25 μl of 10^-2 M arachidonic acid. Changes in the percentage of aggregation was recorded on a multirecorder (T626-DS, NKK Inc., Japan). 1-(4' -Methoxybenzoyl)-2-pyrrolidinone (aniracetam) was used as a control compound.
2. Result The percentage inhibition (I) of platelet aggregation by a test drug was calculated from the following equation: […]
in which A is the percentage maximum aggregation for addition of the drug and B is the percentage maximum aggregation for no addition of the drug.

Compound	inhibition at 50 µg/mL	inhibition at 100 µg/mL	inhibition at 10 µg/mL	inhibition at 25 µg/mL
COc1ccc(C(=O)N2CCCC2=O)cc1 [Aniracetam, 1-(4' -Methoxybenzoyl)-2-pyrrolidinone, reference compound]	0.4%	4.1%	–	–
COc1ccccc1OC(=O)N1CCCC1=O [Compound No. 2, 1-(2'-Methoxyphenoxycarbonyl)-2-pyrrolidinone]	81.6%	96.2%	40.9%	69.8%
COc1cccc(OC(=O)N2CCCC2=O)c1 [Compound No. 3, 1-(3'-Methoxyphenoxycarbonyl)-2-pyrrolidinone]	8.5%	28.6%	–	–
COc1ccc(OC(=O)N2CCCC2=O)cc1 [Compound No. 4, 1-(4'-Methoxyphenoxycarbonyl)-2-pyrrolidinone]	95.5%	98.2%	51.1%	72.5%
Cc1ccccc1OC(=O)N1CCCC1=O [Compound No. 5, 1-(2'-Methylphenoxycarbonyl)-2-pyrrolidinone]	50.6%	92.3%	5%	35.8%
Cc1cccc(OC(=O)N2CCCC2=O)c1 [Compound No. 6, 1-(3'-Methylphenoxycarbonyl)-2-pyrrolidinone]	4.7%	39.7%	–	–
Cc1ccc(OC(=O)N2CCCC2=O)cc1 [Compound No. 7, 1-(4'-Methylphenoxycarbonyl)-2-pyrrolidinone]	70.6%	97.7%	5.8%	31%
COc1cccc(OC)c1OC(=O)N1CCCC1=O [Compound No. 18, 1-(2',6'-Dimethoxyphenoxycarbonyl)-2-pyrrolidinone]	90.9%	96.4%	26%	64.8%

— patent US5227395A, “Anti-platelet aggregating agent” (Nisshin Flour Milling Co., Ltd., priority 1991, dated 1993)
